Data as given in publication PMC7226534, “[^18F]FET-βAG-TOCA: The Design, Evaluation and Clinical Translation of a Fluorinated Octreotide” (Cancers, 2020).

Columns and labels:
[1] = tested on: Wistar rats; conditions: in vivo, iv
Experimental: While adhering to ALARP principles (As Low As Reasonably Practical), a rat dosimetry study was also conducted to enable initial prediction of human Effective Dose. Wistar rats were dosed with a single intravenous injection of [^18F]FET-βAG-TOCA and monitored up to 7 h. Effective Dose for both sexes were estimated at 0.03 mSv/MBq.

[2] = tested on: rat (HsdHan:WIST strain); test: GLP single dose intravenous bolus extended acute toxicology study in the rat; format: in vivo; conditions: dose levels 0, 0.25 and 1 mg/kg
Experimental: Two key studies were conducted to assure regulators of the safety of [^18F]FET-βAG-TOCA prior to first-in-human testing. A Good Laboratory Practice single dose intravenous bolus extended acute toxicology study in the rat (HsdHan^TM:WIST strain) was conducted with both [^19F]FET-βAG-TOCA and the propanyl-βAG-TOCA precursor. Animals were monitored throughout; day 2 (interim) and day 14 (termination) analysis were conducted. Dose levels of 0, 0.25 and 1 mg/kg of either test articles were tolerated in-life with no mortality. There were no effects on food consumption or body weight. Clinical pathology changes were noted but were not consistently seen in both sexes and were not associated with any pathological changes. A No Observed Adverse Effect Level (NOAEL) for both [^19F]FET-βAG-TOCA and propanyl-βAG-TOCA was considered to be 1.0 mg/kg. This study followed ‘approach 1’ given in the ICH M3 (R2) guideline to assess whether a single 50 μg (up to 100 μg) dose of the test article can be given to humans. The study design permitted a safety margin of 1000× the equivalent human dose to be established.

Effective Dose predicted for humans from rat dosimetry [1] [mSv/MBq]	Substance	Effects on food consumption or body weight [2]	Tolerability / mortality [2]
0.03	[^18F]fluoroethyltriazole-βAG-TOCA [Compound 7]	–	–
–	[^19F]FET-βAG-TOCA	no effects	no mortality
–	propanyl-βAG-TOCA	no effects	no mortality
